Patent US20080279781A1, “Glycosylated Carboranylporphyrins and Uses Thereof” (Brookhaven Science Associates, LLC, priority 2007, published 2008)
Each block holds one compound with its values, some of them ahead of it.

Experiments:
tumors = details: in vivo; cited from earlier work
[1] = Weight changes and hematologic parameters in mice bearing EMT-6 carcinomas; format: in vivo, BALB/c mice; details: median (range), 5 mice
Protocol: (§1) BALB/c mice bearing subcutaneously implanted EMT-6 mammary carcinomas implanted on the dorsal thorax were given a total dose of 200-230 milligrams porphyrin compound (VII or XII) per kilogram body weight (32-37 mg B/kg). Mice were given six intraperitoneal injections over a 2-day period with 3 injections per day at 4-hour intervals. At one and two days after the last injection, mice were euthanized, and tumor, blood, brain, and liver were removed for boron analyses by direct current-plasma-atomic-emission spectrometry (DCP-AES). The blood was first analyzed for hematologic parameters that indicate toxicity before it was analyzed for boron.

EMT-6 mammary carcinomas = experiment: Biodistribution of porphyrins in mice bearing EMT-6 carcinomas (boron by DCP-AES); format: in vivo, BALB/c mice; details: n = 5; for Average boron concentration, EMT-6 Tumor: wet tissue
Protocol: (§2) Porphyrin compounds (VII, XII, XXIII) were emulsified in 3% Cremophor EL and 6% propylene glycol in saline.
(§3) To prepare a solution of ˜3.5 mg/mL porphyrin in 3% Cremophor EL (CRM) and 6% propylene glycol (PRG), the porphyrin was dissolved in tetrahydrofuran (THF) (1.5% of the total volume) and then heated to 40° C. for 15 min. CRM (3% of total volume) was then added and the mixture was heated to 60° C. for 2 hours, which removed most of the THF. After cooling to room temperature, PRG (6% of total volume) was added, followed by slow dropwise addition of saline (89.5% of total volume) with rapid stirring. The solution was degassed by stirring under vacuum (˜30 mm Hg) for 30-60 min and then filtered (Millipore, 8 μm).
as §1

[2] = Weight changes and hematologic parameters in mice bearing SCCVII carcinomas; format: in vivo, C3H mice; details: for % Weight change / Granulocytes / Lymphocytes / Platelets: median (range)
Protocol: (§4) C3H mice bearing subcutaneously implanted SCCVII squamous cell carcinomas implanted on the dorsal thorax were given a total dose of 450 milligrams porphyrin compound VII per kilogram body weight (70 mg B/kg) via 6 i.p. injections given over a period of 2 days (3/day over 8 hours). Mice were given porphyrin XXIII at a total dose of 160 mg/kg (36 mg/kg B) via 3 i.p. injections given over a period of 8 hours. At one and two days after the last injection, mice were euthanized, and tumor, blood, brain, and liver were removed for boron analyses. The blood was first analyzed for hematologic parameters that indicate toxicity before it was analyzed for boron.

[3] = system: SCCVII squamous cell carcinomas; experiment: Biodistribution of porphyrins in mice bearing SCCVII squamous cell carcinomas; format: in vivo, C3H mice; details: for Average boron concentration, SCCVII Tumor: wet tissue
Protocol: as §2, §3, §4

[4] = 230 mg/kg i.p., 1 d after last injection
[5] = 230 mg/kg i.p., 2 d after last injection
[6] = 230 mg/kg (37 mg B/kg) in 6 i.p. injections over 2 days, 1 d after last injection
[7] = 230 mg/kg (37 mg B/kg) in 6 i.p. injections over 2 days, 2 d after last injection
[8] = 200 mg/kg i.p., 1 d after last injection
[9] = 200 mg/kg i.p., 2 d after last injection
[10] = 450 mg/kg (70 mg B/kg) i.p., 1 d after last injection, 5 mice
[11] = 200 mg/kg (32 mg B/kg) in 6 i.p. injections over 2 days, 1 d after last injection
[12] = 200 mg/kg (32 mg B/kg) in 6 i.p. injections over 2 days, 2 d after last injection
[13] = 450 mg/kg (70 mg B/kg) in 6 i.p. injections over 2 days, 1 d after last injection, 5 mice
[14] = 180 mg/kg (39 mg B/kg) per table title, 160 mg/kg in text, i.p., 1 d after last injection, 4 mice
[15] = 180 mg/kg (39 mg B/kg) per table title, 160 mg/kg in text, i.p., 2 d after last injection, 4 mice
[16] = 160 mg/kg (36 mg B/kg in title, 160/39 in table) in 3 i.p. injections over 8 hours, 1 d after last injection, 4 mice
[17] = 160 mg/kg (36 mg B/kg in title, 160/39 in table) in 3 i.p. injections over 8 hours, 2 d after last injection, 4 mice

Compound: N[C@@H](Cc1ccc(B(O)O)cc1)C(=O)O [BPA, p-boronophenylalanine]
chemical toxicity (tumors): low chemical toxicity

% Weight change [1, 4]: 1.2 (−3.5-4.8) %
Granulocytes [1, 4]: 61 (38-71) % WBC
Lymphocytes [1, 4]: 36 (26-59) % WBC
Platelets [1, 4]: 962 (944-1306) 10^3/mm^3
% Weight change [1, 5]: 3.4 (−2.2-4.8) %
Granulocytes [1, 5]: 43 (34-76) % WBC
Lymphocytes [1, 5]: 54 (22-63) % WBC
Platelets [1, 5]: 797 (736-877) 10^3/mm^3
Compound: Copper (II) meso-5,15-bis[3-(o-carboranylmethoxy)phenyl]-10,20-bis[3-(β-D-galactose)phenyl]porphyrin [Porphyrin XII]
Average boron concentration, Blood (EMT-6 mammary carcinomas; [6]): 0.4 ± 0.1 μg B/g
Average boron concentration, Brain (EMT-6 mammary carcinomas; [6]): 0.0 ± 0.1 μg B/g
Average boron concentration, Liver (EMT-6 mammary carcinomas; [6]): 473 ± 102 μg B/g
Average boron concentration, Blood (EMT-6 mammary carcinomas; [7]): 0.2 ± 0.1 μg B/g
Average boron concentration, Brain (EMT-6 mammary carcinomas; [7]): 0.0 ± 0.1 μg B/g
Average boron concentration, Liver (EMT-6 mammary carcinomas; [7]): 354 ± 352 μg B/g
Average boron concentration, EMT-6 Tumor (EMT-6 mammary carcinomas; [6]): 16.7 ± 8.3 μg B/g
Average boron concentration, EMT-6 Tumor (EMT-6 mammary carcinomas; [7]): 12.6 ± 5.2 μg B/g

% Weight change [1, 8]: −0.18 (−5.6-4.7) %
Granulocytes [1, 8]: 49 (43-61) % WBC
Lymphocytes [1, 8]: 47 (37-54) % WBC
Platelets [1, 8]: 504 (111-783)* 10^3/mm^3
% Weight change [1, 9]: 3.5 (−1.5-3.9) %
Granulocytes [1, 9]: 45 (40-54) % WBC
Lymphocytes [1, 9]: 52 (44-56) % WBC
Platelets [1, 9]: 935 (840-1039) 10^3/mm^3
% Weight change [2, 10]: −1.2 (−2.6-1.9) %
Granulocytes [2, 10]: 46 (41-50) % WBC
Lymphocytes [2, 10]: 50 (46-56) % WBC
Platelets [2, 10]: 739 (628-751) 10^3/mm^3
thrombocytopenia ([2]; very high dose of 450 mg/kg): no thrombocytopenia
Average boron concentration, Blood [3, 13]: 1.0 ± 0.1 µg/g
Average boron concentration, Brain [3, 13]: 0.3 ± 0.1 µg/g
Average boron concentration, Liver [3, 13]: 787 ± 70 µg/g
Average boron concentration, SCCVII Tumor [3, 13]: 29.1 ± 7.9 µg/g
Compound: copper (II) meso-5,15-bis[3-(o-carboranylmethoxy)phenyl]-10,20-bis[3-(β-D-glucosyl)phenyl]porphyrin [Porphyrin VII]
Average boron concentration, Blood (EMT-6 mammary carcinomas; [11]): 0.4 ± 0.1 μg B/g
Average boron concentration, Brain (EMT-6 mammary carcinomas; [11]): 0.0 ± 0.0 μg B/g
Average boron concentration, Liver (EMT-6 mammary carcinomas; [11]): 457 ± 74 μg B/g
Average boron concentration, Blood (EMT-6 mammary carcinomas; [12]): 0.2 ± 0.0 μg B/g
Average boron concentration, Brain (EMT-6 mammary carcinomas; [12]): 0.0 ± 0.0 μg B/g
Average boron concentration, Liver (EMT-6 mammary carcinomas; [12]): 492 ± 83 μg B/g
Average boron concentration, EMT-6 Tumor (EMT-6 mammary carcinomas; [11]): 20.2 ± 6.3 μg B/g
Average boron concentration, EMT-6 Tumor (EMT-6 mammary carcinomas; [12]): 19.0 ± 5.4 μg B/g

% Weight change [2, 14]: 0.5 (−1.9-3.2) %
Granulocytes [2, 14]: 43 (32-46) % WBC
Lymphocytes [2, 14]: 53 (48-64) % WBC
Platelets [2, 14]: 775 (618-881) 10^3/mm^3
% Weight change [2, 15]: 3.2 (0.9-6.3) %
Granulocytes [2, 15]: 39 (36-43) % WBC
Lymphocytes [2, 15]: 57 (51-59) % WBC
Platelets [2, 15]: 655 (610-723) 10^3/mm^3
Average boron concentration, Blood [3, 16]: 0.6 ± 0.1 µg/g
Average boron concentration, Brain [3, 16]: 0.1 ± 0.0 µg/g
Average boron concentration, Liver [3, 16]: 540 ± 32 µg/g
Average boron concentration, Blood [3, 17]: 0.3 ± 0 µg/g
Average boron concentration, Brain [3, 17]: 0.0 ± 0.0 µg/g
Average boron concentration, Liver [3, 17]: 534 ± 59 µg/g
Average boron concentration, SCCVII Tumor [3, 16]: 16.9 ± 2.6 µg/g
Average boron concentration, SCCVII Tumor [3, 17]: 14.5 ± 2.9 µg/g
Compound: copper (II) meso-5,15-bis[m-(3,5-di-o-carboranylmethoxybenzyloxy)phenyl]-10,20-bis[3-(β-D-glucosyl)phenyl]porphyrin [Porphyrin XXIII]
platelet count in comparison with the control mice ([2]; moderately high dose of 160 mg/kg): did not show any decrease in platelet count
